Test results: patent US6294542A, “Pyrimidinone compounds, pharmaceutical compositions containing the compounds and the process for preparing the same” (Boryung Pharmaceutical Co. Ltd., priority 1998, dated 2001)

Legend:
[1] = system: Angiotensin II-induced pressor response; assay: In vivo Angiotensin II antagonism in conscious normotensive rats; settings: Rattus norvegicus, po; P.O.; conscious normotensive male SD rats; Angiotensin II 0.1 μg/kg; read-out: ID50 (dose of test compound necessary to produce 50% inhibition of Angiotensin II-induced pressor response)
Method: The antagonistic activity of the compound (I) against the angiotensin II, which is prepared by the process according to a preferred embodiment of the invention, was evaluated with relation to rats.
In vivo Angiotensin II antagonism in conscious normotensive rats.
Male SD rats (Charles River Japan, 9 weeks, 300-350 g) were anesthetized with pentobarbital at 50 mg/kg i.p. Both the left femoral artery and the right femoral vein were cannulated. A heparin-filled catheter (50U/ml) was tunneled subcutaneously (s.c.) to the dorsal side of the neck and exteriorized.
Rats were permitted to recover overnight from anesthesia and allowed free access to water, but food was withheld.
The next day, the femoral artery catheter was connected to a pressure transducer (COBE 041-500-508, USA) coupled to a polygraph (GRASS Model 7, USA) to monitor arterial blood pressure. After an appropriate equilibration period, Angiotensin II (0.1 μg/kg) was injected in the femoral vein three times during the control period.
Test compounds were then administered orally (p.o.) at a constant volume of 2 ml/kg.
Angiotensin II challenges were repeated at set times thereafter.
ID50 values, the dose of test compound necessary to produce 50% inhibition of Angiotensin II-induced pressor response, were calculated from peak inhibition percentage with several doses of test compound.

[2] = Acute Toxicity Test (oral, mice); format: in vivo; settings: for LD50: mouse, in vivo, po
Method: Respective 5 mice of ICR system, which was distributed from Korean Laboratory Animal Center, were bred in a polycarbonate breeding box at a breeding environment of 23±1° C. of temperature, 55±5% of humidity, 10-15 times/hr of evacuation, 12 hr cycle of fluorescent light luminance, and 150-300 Lux of illumination.
After observing the mice for one week of acclimation breeding period, only normal mice were selected for laboratory work. The mice were fed with sterilized feed for laboratory animals, which was made by Cheil Jedang Co.,Ltd, and supplied with purified water to drink.
During the acclimation period, mice, who were evaluated to be healthy, were weighed and divided into groups randomly. Individual identification of laboratory animals was performed by indumentum pigment display and tag display per breeding box.
Establishment of dose was carried out according to a result of preliminary test in such a manner that a maximum dose group for both male and female was set to 5000 mg/kg and azeotropy was set to 1.71. Medium-high, medium and medium-low dose groups were respectively set as follows and a control group was administrated with physiological saline for injection.
Before administration of testing substances, body weight of the laboratory animals was in the range of 24-28 g in case of male and in the range of 19-28 g in case of female, respectively. The laboratory animals were aged 6 weeks.
Preparation of the testing substances was dissolved in physiological saline before administration. Dose was calculated according to the body weight which was measured before administration and dispensed by oral administration to a mouse who was in abrosia for 18 hours before testing.
Observation of clinical symptom such as general change, toxic symptom and mortality was performed for all laboratory animals once an hour during 6 hours after administration on the very administration day, and once a day from the next day to 14th day of administration.
Administration group, who was administered with testing substances, and the control group were weighed on the administration day, first, third, seventh, tenth and fourteenth days from the administration at a predetermined time for all animals who were alive.
After finish of the test, all animals were slightly anesthetized with ether and bleeding-killed. Appearance and internal organs of the animals were examined with naked eye carefully. Animals, who died during the text, were examined in the same manner.

Q: With `CCCCc1nc(C)c(CC(N)=S)c(=O)n1Cc1ccc(-c2ccccc2-c2nnn[nH]2)cc1` [Compound 1, 2-n-butyl-5-aminothiocarbonylmethyl-6-methyl-3-[[2'-(1H-tetrazol-5-yl)biphenyl-4-yl]methyl]-pyrimidine-4(3H)-one] as the molecule, how does the ED50 [1] read?
A: The ED50 was > 3 mg/kg.

Q: What does the source list for `CCCCc1nc(C)c(CC(=S)N(C)C)c(=O)n1Cc1ccc(-c2ccccc2-c2nnn[nH]2)cc1` [Compound 2, 2-n-butyl-5-dimethylaminothiocarbonylmethyl-6-methyl-3-[[2'-(1H-tetrazol-5-yl)biphenyl-4-yl]methyl]-pyrimidine-4(3H)-one]?
A: Mortality (death number/survival number) ([2]; female, 1000 mg/kg oral, day 0): 0/5; Mortality (death number/survival number) ([2]; female, 1000 mg/kg oral, day 1): 0/5; Mortality (death number/survival number) ([2]; female, 1000 mg/kg oral, day 2): 0/5; Mortality (death number/survival number) ([2]; female, 1000 mg/kg oral, day 3): 0/5; Mortality (death number/survival number) ([2]; female, 1000 mg/kg oral, day 7): 0/5; Mortality (death number/survival number) ([2]; female, 1000 mg/kg oral, day 14): 0/5; Mortality (death number/survival number) ([2]; female, 1710 mg/kg oral, day 0): 0/5; Mortality (death number/survival number) ([2]; female, 1710 mg/kg oral, day 1): 0/5; Mortality (death number/survival number) ([2]; female, 1710 mg/kg oral, day 2): 0/5; Mortality (death number/survival number) ([2]; female, 1710 mg/kg oral, day 3): 0/5; Mortality (death number/survival number) ([2]; female, 1710 mg/kg oral, day 7): 0/5; Mortality (death number/survival number) ([2]; female, 1710 mg/kg oral, day 14): 0/5; Mortality (death number/survival number) ([2]; female, 2924 mg/kg oral, day 0): 0/5; Mortality (death number/survival number) ([2]; female, 2924 mg/kg oral, day 1): 0/5; Mortality (death number/survival number) ([2]; female, 2924 mg/kg oral, day 2): 0/5; Mortality (death number/survival number) ([2]; female, 2924 mg/kg oral, day 3): 0/5; Mortality (death number/survival number) ([2]; female, 2924 mg/kg oral, day 7): 0/5; Mortality (death number/survival number) ([2]; female, 2924 mg/kg oral, day 14): 0/5; Final mortality (death number/total number) ([2]; female, 5000 mg/kg oral): 0/5; Mortality (death number/survival number) ([2]; female, 5000 mg/kg oral, day 0): 0/5; Mortality (death number/survival number) ([2]; female, 5000 mg/kg oral, day 1): 0/5; Mortality (death number/survival number) ([2]; female, 5000 mg/kg oral, day 2): 0/5; Mortality (death number/survival number) ([2]; female, 5000 mg/kg oral, day 3): 0/5; Mortality (death number/survival number) ([2]; female, 5000 mg/kg oral, day 7): 0/5; Mortality (death number/survival number) ([2]; female, 5000 mg/kg oral, day 14): 0/5; Mortality (death number/survival number) ([2]; male, 1000 mg/kg oral, day 0): 0/5; Mortality (death number/survival number) ([2]; male, 1000 mg/kg oral, day 1): 0/5; Mortality (death number/survival number) ([2]; male, 1000 mg/kg oral, day 2): 0/5; Mortality (death number/survival number) ([2]; male, 1000 mg/kg oral, day 3): 0/5; Mortality (death number/survival number) ([2]; male, 1000 mg/kg oral, day 7): 0/5; Mortality (death number/survival number) ([2]; male, 1000 mg/kg oral, day 14): 0/5; Mortality (death number/survival number) ([2]; male, 1710 mg/kg oral, day 0): 0/5; Mortality (death number/survival number) ([2]; male, 1710 mg/kg oral, day 1): 0/5; Mortality (death number/survival number) ([2]; male, 1710 mg/kg oral, day 2): 0/5; Mortality (death number/survival number) ([2]; male, 1710 mg/kg oral, day 3): 0/5; Mortality (death number/survival number) ([2]; male, 1710 mg/kg oral, day 7): 0/5; Mortality (death number/survival number) ([2]; male, 1710 mg/kg oral, day 14): 0/5; Mortality (death number/survival number) ([2]; male, 2924 mg/kg oral, day 0): 0/5; Mortality (death number/survival number) ([2]; male, 2924 mg/kg oral, day 1): 0/5; Mortality (death number/survival number) ([2]; male, 2924 mg/kg oral, day 2): 0/5; Mortality (death number/survival number) ([2]; male, 2924 mg/kg oral, day 3): 0/5; Mortality (death number/survival number) ([2]; male, 2924 mg/kg oral, day 7): 0/5; Mortality (death number/survival number) ([2]; male, 2924 mg/kg oral, day 14): 0/5; Final mortality (death number/total number) ([2]; male, 5000 mg/kg oral): 0/5; Mortality (death number/survival number) ([2]; male, 5000 mg/kg oral, day 0): 0/5; Mortality (death number/survival number) ([2]; male, 5000 mg/kg oral, day 1): 0/5; Mortality (death number/survival number) ([2]; male, 5000 mg/kg oral, day 2): 0/5; Mortality (death number/survival number) ([2]; male, 5000 mg/kg oral, day 3): 0/5; Mortality (death number/survival number) ([2]; male, 5000 mg/kg oral, day 7): 0/5; Mortality (death number/survival number) ([2]; male, 5000 mg/kg oral, day 14): 0/5; LD50 ([2]; female mice): > 5000 mg/kg; LD50 ([2]; male mice): > 5000 mg/kg; ED50 [1]: 1.1 mg/kg

Q: For `CCCCc1nc(C)c(CC(=S)N(CC)CC)c(=O)n1Cc1ccc(-c2ccccc2-c2nnn[nH]2)cc1` [Compound 3, 2-n-butyl-5-diethylaminothiocarbonylmethyl-6-methyl-3-[[2'-(1H-tetrazol-5-yl)biphenyl-4-yl]methyl]-pyrimidine-4(3H)-one], which ED50 [1] is on record?
A: The ED50 was < 3 mg/kg.

Q: With `CCCCc1nc(C)c(CC(=S)N2CCCCCCC2)c(=O)n1Cc1ccc(-c2ccccc2-c2nn[nH]n2)cc1` [Compound 4, 2-n-butyl-5-heptamethyleniminothiocarbonyl-methyl-6-methyl-3-[[2'-(1H-tetrazol-5-yl)biphenyl-4-yl]methyl]-pyrimidine-4(3H)-one] as the molecule, how does the ED50 [1] read?
A: The ED50 was 3.1 mg/kg.

Q: For `CCCCc1nc(C)c(CC(=S)N2CCSCC2)c(=O)n1Cc1ccc(-c2ccccc2-c2nn[nH]n2)cc1` [Compound 5, 2-n-butyl-5-thiomorpholynothiocarbonylmethyl-6-methyl-3-[[2'-(1H-tetrazol-5-yl)-biphenyl-4-yl]methyl]-pyrimidine-4(3H)-one], which ED50 [1] is on record?
A: The ED50 was < 3 mg/kg.

Q: For `CCCCc1nc(C)c(CC(=S)N2CCOCC2)c(=O)n1Cc1ccc(-c2ccccc2-c2nn[nH]n2)cc1` [Compound 6], which ED50 [1] is on record?
A: Its ED50 is < 3 mg/kg.

Q: Which ED50 [1] does the source give for `CCCCc1nc(C)c(CC(=S)N2CCCCC2)c(=O)n1Cc1ccc(-c2ccccc2-c2nnn[nH]2)cc1` [Compound 7, 2-n-butyl-5-piperidinothiocarbonylmethyl-6-methyl-3-[[2 '-(1H-tetrazol-5-yl)-biphenyl-4-yl]methyl]-pyrimidine-4(3H)-one] here?
A: The ED50 was < 3 mg/kg.

Q: Which ED50 [1] does the source give for `CCCCc1nc(C)c(CC(=S)N2CCC2)c(=O)n1Cc1ccc(-c2ccccc2-c2nn[nH]n2)cc1` [Compound 9, 2-n-butyl-5-azetidinothiocarbonylmethyl-6-methyl-3-[[2'-(1H-tetrazol-5-yl)-biphenyl-4-yl]methyl]-pyrimidine-4 (3H)-one] here?
A: The ED50 was 1.19 mg/kg.
